The values below come from patent US9226916B2, “Pyrrolidine derivatives” (HOFFMANN-LA ROCHE INC., priority 2009, dated 2016).

The target in one test is T1, recombinant human NK3 receptor (Homo sapiens, UniProt P29371).
T1 construct: expressed in transfected cells; host or cells: HEK293 cells, transient expression; membranes
T1 sequence (P29371 1-465): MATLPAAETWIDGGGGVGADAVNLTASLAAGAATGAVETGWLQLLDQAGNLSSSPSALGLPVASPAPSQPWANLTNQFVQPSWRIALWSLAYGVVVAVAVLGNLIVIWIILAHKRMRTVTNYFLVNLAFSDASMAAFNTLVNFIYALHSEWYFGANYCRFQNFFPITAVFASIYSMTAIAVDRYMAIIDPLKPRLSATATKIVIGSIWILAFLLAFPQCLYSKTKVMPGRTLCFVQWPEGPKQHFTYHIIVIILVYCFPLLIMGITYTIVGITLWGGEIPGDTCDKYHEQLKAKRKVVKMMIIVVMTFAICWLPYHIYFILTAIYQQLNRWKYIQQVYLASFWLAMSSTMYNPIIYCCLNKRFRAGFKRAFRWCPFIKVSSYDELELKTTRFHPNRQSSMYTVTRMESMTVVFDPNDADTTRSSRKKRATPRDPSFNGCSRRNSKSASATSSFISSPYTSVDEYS
The test is described as follows: [3H]SR142801 competition binding assay.
Settings: not given
With `CN(C(=O)OCC(C)(C)C)[C@@H]1CN(C(=O)C2CCN(c3ccc(C#N)cn3)CC2)C[C@H]1c1ccc(Cl)cc1` [Example 205, [(3S,4R)-4-(4-Chloro-phenyl)-1-(5′-cyano-3,4,5,6-tetrahydro-2H-[1,2′]bipyridinyl-4-carbonyl)-pyrrolidin-3-yl]-methyl-carbamic acid 2,2-dimethyl-propyl ester], the Ki stood at 5.7 nM.

With `COc1ccc(OC(=O)N(C)[C@H]2CN(C(=O)C3CCN(CC4CC4)CC3)C[C@@H]2c2ccc(Cl)c(Cl)c2)cc1` (racemic) [Example 9, rac-[(3R,4S)-1-(1-Cyclopropylmethyl-piperidine-4-carbonyl)-4-(3,4-dichloro-phenyl)-pyrrolidin-3-yl]-methyl-carbamic acid 4-methoxy-phenyl ester], the Ki was 13.6 nM.

In the case of `CN(C(=O)Oc1ccc(F)cc1)[C@@H]1CN(C(=O)C2CCN(C(=O)c3ccc(C(F)(F)F)cn3)CC2)C[C@H]1c1ccc(Cl)cc1` [Example 261, {(3S,4R)-4-(4-Chloro-phenyl)-1-[1-(5-trifluoromethyl-pyridine-2-carbonyl)-piperidine-4-carbonyl]-pyrrolidin-3-yl}-methyl-carbamic acid 4-fluoro-phenyl ester], the Ki was 18.9 nM.

Turning to `CCCCOC(=O)N(C)[C@H]1CN(C(=O)C2CCN(CC3CC3)CC2)C[C@@H]1c1ccc(Cl)c(Cl)c1` (racemic) [Example 11, rac-[(3R,4S)-1-(1-Cyclopropylmethyl-piperidine-4-carbonyl)-4-(3,4-dichloro-phenyl)-pyrrolidin-3-yl]-methyl-carbamic acid butyl ester], the Ki was found to be 27.1 nM.

Consider `COc1cnc(N2CCC(C(=O)N3C[C@@H](N(C)C(=O)Oc4ccc(F)cc4)[C@H](c4ccc(Cl)cc4)C3)CC2)nc1` [Example 190, {(3S,4R)-4-(4-Chloro-phenyl)-1-[1-(5-methoxy-pyrimidin-2-yl)-piperidine-4-carbonyl]-pyrrolidin-3-yl}-methyl-carbamic acid 4-fluoro-phenyl ester], for which the Ki is 17.2 nM.

For the compound `CN(C(=O)Oc1ccc(F)cc1)[C@@H]1CN(C(=O)C2CCN(C(=O)C3CCC3)CC2)C[C@H]1c1ccc(Cl)cc1` [Example 247, [(3S,4R)-4-(4-Chloro-phenyl)-1-(1-cyclobutanecarbonyl-piperidine-4-carbonyl)-pyrrolidin-3-yl]-methyl-carbamic acid 4-fluoro-phenyl ester], the Ki was found to be 0.9 nM.

As for `CN(C(=O)Oc1ccc(F)cc1)[C@@H]1CN(C(=O)C2CCOCC2)C[C@H]1c1ccc(Cl)c(Cl)c1` [Example 51, [(3S,4R)-4-(3,4-Dichloro-phenyl)-1-(tetrahydro-pyran-4-carbonyl)-pyrrolidin-3-yl]-methyl-carbamic acid 4-fluoro-phenyl ester], the Ki is 1.8 nM.

In the case of `CN(C(=O)Oc1ccc(F)cc1)[C@@H]1CN(C(=O)C2CCN(c3ccc(Cl)cn3)CC2)C[C@H]1c1ccc(Cl)c(F)c1` [Example 312, [(3S,4R)-4-(4-Chloro-3-fluoro-phenyl)-1-(5′-chloro-3,4,5,6-tetrahydro-2H-[1,2′]bipyridinyl-4-carbonyl)-pyrrolidin-3-yl]-methyl-carbamic acid 4-fluoro-phenyl ester], the Ki was found to be 0.4 nM.

Take `CN(C(=O)Oc1ccc(F)cc1)[C@H]1CN(C(=O)C2CCN(C(=O)C3(C)CC3)CC2)C[C@@H]1c1ccc(Cl)c(Cl)c1` (racemic) [Example 2, rac-{(3R,4S)-4-(3,4-Dichloro-phenyl)-1-[1-(1-methyl-cyclopropanecarbonyl)-piperidine-4-carbonyl]-pyrrolidin-3-yl}-methyl-carbamic acid 4-fluoro-phenyl ester]: the Ki came to 0.4 nM.

For `COCC(=O)N1CCC(C(=O)N2C[C@@H](N(C)C(=O)Oc3ccc(F)cc3)[C@H](c3ccc(Cl)cc3)C2)C1` (stereo partly drawn) [Example 172, {(3S,4R)-4-(4-Chloro-phenyl)-1-[1-(2-methoxy-acetyl)-pyrrolidine-3-carbonyl]-pyrrolidin-3-yl}-methyl-carbamic acid 4-fluoro-phenyl ester], the Ki was found to be 4.1 nM.

Take `CN(C(=O)OCC1CCCC1)[C@H]1CN(C(=O)C2CCN(C(=O)C3(C)CC3)CC2)C[C@@H]1c1ccc(Cl)c(Cl)c1` (racemic) [Example 32, rac-{(3R,4S)-4-(3,4-Dichloro-phenyl)-1-[1-(1-methyl-cyclopropanecarbonyl)-piperidine-4-carbonyl]-pyrrolidin-3-yl}-methyl-carbamic acid cyclopentylmethyl ester]: the Ki came to 1.4 nM.

Consider `CN(C(=O)Oc1ccc(F)cc1)[C@@H]1CN(C(=O)C2CCN(C3CCS(=O)(=O)CC3)CC2)C[C@H]1c1ccc(Cl)cc1` [Example 109, {(3S,4R)-4-(4-Chloro-phenyl)-1-[1-(1,1-dioxo-hexahydro-1λ^6-thiopyran-4-yl)-piperidine-4-carbonyl]-pyrrolidin-3-yl}-methyl-carbamic acid 4-fluoro-phenyl ester], for which the Ki was found to be 0.2 nM.

As for `CN(C(=O)Oc1ccc(Cl)cc1)[C@@H]1CN(C(=O)C2CCN(C(=O)C3(C)CC3)CC2)C[C@H]1c1ccc(Cl)c(Cl)c1` [Example 19, {(3S,4R)-4-(3,4-Dichloro-phenyl)-1-[1-(1-methyl-cyclopropanecarbonyl)-piperidine-4-carbonyl]-pyrrolidin-3-yl}-methyl-carbamic acid 4-chlorophenyl ester], the Ki is 0.2 nM.

With `CN(C(=O)Oc1ccc(F)cc1)[C@@H]1CN(C(=O)[C@H]2CC[C@H](O)CC2)C[C@H]1c1ccc(Cl)cc1` [Example 89, [(3S,4R)-4-(4-Chloro-phenyl)-1-(4-hydroxy-cyclohexanecarbonyl)-pyrrolidin-3-yl]-methyl-carbamic acid 4-fluoro-phenyl ester], the Ki was 20.2 nM.

Turning to `CN(C(=O)Oc1ccccc1)[C@@H]1CN(C(=O)C2CCN(c3ccc(C#N)cn3)CC2)C[C@H]1c1ccc(Cl)cc1` [Example 200, [(3S,4R)-4-(4-Chloro-phenyl)-1-(5′-cyano-3,4,5,6-tetrahydro-2H-[1,2′]bipyridinyl-4-carbonyl)-pyrrolidin-3-yl]-methyl-carbamic acid phenyl ester], the Ki amounted to 7.2 nM.

`CN(C(=O)Oc1ccc(F)cc1)[C@H]1CN(C(=O)[C@H]2CC[C@H](O)CC2)C[C@@H]1c1ccc(Cl)c(Cl)c1` (stereo in doubt) [Example 45, [(3R,4S)-4-(3,4-Dichloro-phenyl)-1-(trans-4-hydroxy-cyclohexanecarbonyl)-pyrrolidin-3-yl]-methyl-carbamic acid 4-fluoro-phenyl ester]: the Ki came out at 3.2 nM.

For the compound `CN(C(=O)OC1CCC(F)(F)CC1)[C@H]1CN(C(=O)C2CCN(C(=O)C3(C)CC3)CC2)C[C@@H]1c1ccc(Cl)c(Cl)c1` (racemic) [Example 102, rac-{(3R,4S)-4-(3,4-Dichloro-phenyl)-1-[1-(1-methyl-cyclopropanecarbonyl)-piperidine-4-carbonyl]-pyrrolidin-3-yl}-methyl-carbamic acid 4,4-difluoro-cyclohexyl ester], the Ki stood at 4 nM.

Take `CN(C(=O)OCCC(F)(F)F)[C@H]1CN(C(=O)C2CCN(C(=O)C3(C)CC3)CC2)C[C@@H]1c1ccc(Cl)c(Cl)c1` (single isomer, unassigned) [Example 29]: the Ki was determined as 14.9 nM.

In the case of `CN(C(=O)O[C@H]1CC[C@H](C(F)(F)F)CC1)[C@@H]1CN(C(=O)C2CCN(c3ccc(C(=O)NC(C)(C)C)cn3)CC2)C[C@H]1c1ccc(Cl)cc1` (racemic) [Example 121, rac-[(3S,4R)-1-(5′-tert-Butylcarbamoyl-3,4,5,6-tetrahydro-2H-[1,2′]bipyridinyl-4-carbonyl)-4-(4-chloro-phenyl)-pyrrolidin-3-yl]-methyl-carbamic acid 4-trifluoromethyl-cyclohexyl ester], the Ki was 6.6 nM.

In the case of `CN(C(=O)O[C@]1(C(F)(F)F)CC[C@@H](C)CC1)[C@@H]1CN(C(=O)C2CCN(c3ccc(C#N)cn3)CC2)C[C@H]1c1ccc(Cl)cc1` [Example 240, [(3S,4R)-4-(4-Chloro-phenyl)-1-(5′-cyano-3,4,5,6-tetrahydro-2H-[1,2′]bipyridinyl-4-carbonyl)-pyrrolidin-3-yl]-methyl-carbamic acid 4-methyl-1-trifluoromethyl-cyclohexyl ester], the Ki was found to be 22.8 nM.

For `CN(C(=O)Oc1ccc(F)cc1)[C@@H]1CN(C(=O)C2CCN(c3ccc(F)cn3)CC2)C[C@H]1c1ccc(Cl)c(Cl)c1` [Example 309, [(3S,4R)-4-(3,4-Dichloro-phenyl)-1-(5′-fluoro-3,4,5,6-tetrahydro-2H-[1,2′]bipyridinyl-4-carbonyl)-pyrrolidin-3-yl]-methyl-carbamic acid 4-fluoro-phenyl ester], the Ki was 0.5 nM.

As for `CN(C(=O)O[C@H]1CC[C@@H](C)CC1)[C@@H]1CN(C(=O)C2CCN(c3ccc(C#N)cn3)CC2)C[C@H]1c1ccc(Cl)cc1` [Example 220, [(3S,4R)-4-(4-Chloro-phenyl)-1-(5′-cyano-3,4,5,6-tetrahydro-2H-[1,2′]bipyridinyl-4-carbonyl)-pyrrolidin-3-yl]-methyl-carbamic acid 4-methyl-cyclohexyl ester], the Ki came to 42.8 nM.

Still in this test, the particulars now being: hNK-3 receptor affinity; membranes from HEK293 cells transiently expressing recombinant human NK3 receptor; [3H]SR142801; Cheng-Prussoff; read-out: Data Ki.
As to `CN(C(=O)O[C@H]1CC[C@@H](C(F)(F)F)CC1)[C@@H]1CN(C(=O)C2CCN(C(=O)C3(C)CC3)CC2)C[C@H]1c1ccc(Cl)c(Cl)c1` [Example 108, {(3S,4R)-4-(3,4-Dichloro-phenyl)-1-[1-(1-methyl-cyclopropanecarbonyl)-piperidine-4-carbonyl]-pyrrolidin-3-yl}-methyl-carbamic acid 4-trifluoromethyl-cyclohexyl ester], the Ki was 0.7 nM.

In general, Ki refers to a measure of affinity in units of concentration, obtained from inhibition or displacement.
